From patent publication US8476029B2, “MCPP immunoassay” (priority 2009, dated 2013)
Values after ≈ are worked out from the molar mass of the structure shown. Values joined by “and” are separate entries in the source; they are usually repeats but may differ in a detail not shown here. Equal values may be shown once. Read-outs that look alike come from different tables or passages of the source.

Assays:
[1] = test system: Generic antibody (antibody raised from the mCPP-derived immunogen); assay type: binding, sheep; details: for % CR (percentage cross-reactivity): based on Nefazodone (100%); for IC50 (standard concentration which produces 50% B/B0): generic antibody
Procedure: (§1) The resulting immunogens were administered separately to adult sheep on a monthly basis to provide target-specific polyclonal antisera. IgG was extracted from the antisera via caprylic acid/ammonium sulphate precipitation of immunoglobulin. Microtitre plates (Thermo Scientific, 95029180) were coated with antibody (125 μl) in coating buffer (10 mM Tris pH 8.5) at 37° C. for 2 hours. […] The plates were then washed. […] The plates were then washed and 125 μl of TMB (Randox, 4380-15) was added to each well and left at room temperature for 20 minutes in the dark. The reaction was stopped using 125 μl of 0.2M sulphuric acid. The absorbances were then read at 450 nm with an ELISA microplate reader (BIO-TEK Instruments, EL340) and the means calculated. Antibody specificity and sensitivity were then determined.

[2] = test system: Trazodone antibody (antibody raised from the trazodone-derived immunogen); assay type: binding, sheep; details: for % CR (percentage cross-reactivity): based on Trazodone (100%)
Procedure: as §1

[3] = humans, urine; cited from earlier work

SMILES	% CR (percentage cross-reactivity) [1]	IC50 (standard concentration which produces 50% B/B0) [1]	% B/B0 ([1]; standard conc 0.156 ng/ml)	% B/B0 ([1]; standard conc 0.313 ng/ml)	% B/B0 ([1]; standard conc 0.625 ng/ml)	% B/B0 ([1]; standard conc 1.250 ng/ml)	% B/B0 ([1]; standard conc 2.500 ng/ml)	% B/B0 ([1]; standard conc 5.000 ng/ml)	% B/B0 ([1]; standard conc 10.000 ng/ml)	% CR (percentage cross-reactivity) [2]	% B/B0 ([2]; standard conc 0.156 ng/ml)	% B/B0 ([2]; standard conc 0.313 ng/ml)	% B/B0 ([2]; standard conc 0.625 ng/ml)	% B/B0 ([2]; standard conc 1.250 ng/ml)	% B/B0 ([2]; standard conc 2.500 ng/ml)	% B/B0 ([2]; standard conc 5.000 ng/ml)	% B/B0 ([2]; standard conc 10.000 ng/ml)	A450 (absorbance at 450 nm) ([1]; standard conc 0.156 ng/ml)	A450 (absorbance at 450 nm) ([1]; standard conc 0.313 ng/ml)	A450 (absorbance at 450 nm) ([1]; standard conc 0.625 ng/ml)	further results
CCc1nn(CCCN2CCN(c3cccc(Cl)c3)CC2)c(=O)n1CCOc1ccccc1 [Nefazodone]	100%	3.901 ng/mL (≈ 0.0083 µM)	91%	83%	73%	58%	46%	34%	24%	1.38%	97%	99%	97%	100%	99%	105%	107%	–	–	–	A450 (absorbance at 450 nm) [2]: 1.621 and 1.677 and 1.663 and 1.765 and 1.799 and 1.631 and 1.656; mCPP as share of total metabolites (minor urinary metabolite of nefazodone) [3]: less than 1%
Clc1cccc(N2CCNCC2)c1 [mCPP, 1-(3-chlorophenyl)piperazine]	46%	8.476 ng/mL (≈ 0.0431 µM)	85%	79%	72%	65%	55%	48%	42%	0.68%	98%	100%	100%	100%	101%	103%	106%	1.821	1.679	1.534	A450 (absorbance at 450 nm) ([1]; standard conc 1.250 ng/ml): 1.380; A450 (absorbance at 450 nm) ([1]; standard conc 2.500 ng/ml): 1.183; A450 (absorbance at 450 nm) ([1]; standard conc 5.000 ng/ml): 1.027; A450 (absorbance at 450 nm) ([1]; standard conc 10.000 ng/ml): 0.888; A450 (absorbance at 450 nm) ([2]; standard conc 0.156 ng/ml): 1.721; A450 (absorbance at 450 nm) ([2]; standard conc 0.313 ng/ml): 1.755; A450 (absorbance at 450 nm) ([2]; standard conc 0.625 ng/ml): 1.756; A450 (absorbance at 450 nm) ([2]; standard conc 1.250 ng/ml): 1.759; A450 (absorbance at 450 nm) ([2]; standard conc 2.500 ng/ml): 1.782; A450 (absorbance at 450 nm) ([2]; standard conc 5.000 ng/ml): 1.814; A450 (absorbance at 450 nm) ([2]; standard conc 10.000 ng/ml): 1.857
O=c1n(CCCN2CCN(c3cccc(Cl)c3)CC2)nc2ccccn12 [Trazodone, 2-(3-[4-(3-chlorophenyl)piperazin-1-yl]propyl)-[1,2,4]triazolo[4,3-α]pyridin-3(2H)-one]	733%	–	67%	58%	48%	35%	25%	18%	13%	100%	47%	33%	21%	14%	9%	5%	3%	1.456	1.271	1.041	A450 (absorbance at 450 nm) ([1]; standard conc 1.250 ng/ml): 0.763; A450 (absorbance at 450 nm) ([1]; standard conc 2.500 ng/ml): 0.551; A450 (absorbance at 450 nm) ([1]; standard conc 5.000 ng/ml): 0.398; A450 (absorbance at 450 nm) ([1]; standard conc 10.000 ng/ml): 0.287; A450 (absorbance at 450 nm) ([2]; standard conc 0.156 ng/ml): 0.816; A450 (absorbance at 450 nm) ([2]; standard conc 0.313 ng/ml): 0.570; A450 (absorbance at 450 nm) ([2]; standard conc 0.625 ng/ml): 0.375; A450 (absorbance at 450 nm) ([2]; standard conc 1.250 ng/ml): 0.237; A450 (absorbance at 450 nm) ([2]; standard conc 2.500 ng/ml): 0.151; A450 (absorbance at 450 nm) ([2]; standard conc 5.000 ng/ml): 0.093; A450 (absorbance at 450 nm) ([2]; standard conc 10.000 ng/ml): 0.057
